Earlier results in patent US20070298098A1, “Controlled Release Compositions Comprising Levetiracetam” (ELAN PHARMA INTERNATIONAL LIMITED, priority 2005, published 2007).
“Also recorded” adds a separate entry of the source.

plasma half-life (across studies): 6 to 8 h
linearity of pharmacokinetics (dose range of 500-5000 mg): linear
dependence of metabolism on liver cytochrome P450 (in vivo): not liver cytochrome P450 dependent
dose renally excreted unchanged (in vivo): 66%
major metabolic pathway (enzymatic hydrolysis of the acetamide group), share of dose (in vivo): 24 % of dose
time to steady state (multiple twice-daily dosing): 2 days
time of peak plasma concentrations (oral administration, fasted subjects): about an hour
decrease of Cmax by food (with food): 20%
delay of Tmax by food (with food): 1.5 h
Structure (SMILES): CC[C@@H](C(N)=O)N1CCCC1=O (single isomer, unassigned) [Levetiracetam]
effect of food on extent of bioavailability / absorption (with food): not affected by food; also recorded: Food does not affect the extent of absorption
